Experimental data from patent publication US4598089A, “Leucine derivatives” (Hoffmann-La Roche Inc., priority 1983, dated 1986).

Columns and labels:
pig pancreas lipase = target: T1, pig pancreas lipase (Sus scrofa, UniProt P00591); assay: inhibition of pancreas lipase (titrimetric, oleic acid liberated from triolein); assay type: biochemical
T1 sequence (P00591 1-450): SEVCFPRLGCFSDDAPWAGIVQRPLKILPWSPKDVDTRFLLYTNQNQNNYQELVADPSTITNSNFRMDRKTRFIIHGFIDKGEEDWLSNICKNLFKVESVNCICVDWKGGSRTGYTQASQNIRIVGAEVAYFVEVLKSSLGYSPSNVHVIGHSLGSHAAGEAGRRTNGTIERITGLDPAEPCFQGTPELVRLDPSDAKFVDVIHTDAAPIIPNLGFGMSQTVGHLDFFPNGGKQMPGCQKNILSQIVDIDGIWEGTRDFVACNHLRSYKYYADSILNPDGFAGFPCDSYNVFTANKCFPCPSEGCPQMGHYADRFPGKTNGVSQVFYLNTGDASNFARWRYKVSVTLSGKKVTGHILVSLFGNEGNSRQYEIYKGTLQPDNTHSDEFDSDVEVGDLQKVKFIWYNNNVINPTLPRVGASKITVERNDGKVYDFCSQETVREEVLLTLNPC
Description: The IC50 is that concentration at which the lipase reactivity is inhibited to half of the maximum.

[1] = acute toxicity, single oral administration to mice; conditions: mouse, in vivo
Description: An emulsion which contains 1 mM taurodeoxycholate, 9 mM taurodeoleate, 0.1 mM cholesterol, 1 mM egg lecithin, 15 mg/ml BSA (i.e., bovine serum albumine), 2 mM Tris-HCl, 100 mM sodium chloride, 1 mM calcium chloride and the substrate triolein is treated with the compound of formula I dissolved in ethanol or dimethyl sulphoxide (10% of the emulsion volume) and the reaction is started by the addition of 100 μl (175 U) of pig pancreas lipase. the pH is held at 8 during the reaction by the addition of sodium hydroxide. The IC50 is calculated from the consumption of sodium hydroxide determined during 10 minutes. The IC50 is that concentration at which the lipase reactivity is inhibited to half of the maximum. Table I hereinafter contains IC50 values determined for the compounds of formula I and data concerning the acute toxicity (LD50 after single oral administration to mice).

resorption of fats = assay: inhibition of the resorption of fats, double-labelling experiment on mice (3H-triolein and 14C-oleic acid excreted with the feces); assay type: in vivo; conditions: 40 mg/kg lipstatin, given as preparation containing about 10% lipstatin, test meal
Description: For this purpose, there is administered to the test animals a test meal, which contains ^3 H-triolein and ^14 C-oleic acid, and a compound of formula I. By measuring the radioactivity there is then determined the amount of ^3 H-triolein and ^14 C-oleic acid (in % of the amount administered) excreted with the feces.
*The experiments were carried out with a preparation which contained abou
10% lipstatin. The dosage specified is the amount of lipstatin

For `CCCCC/C=C\C/C=C\C[C@@H](C[C@@H]1OC(=O)[C@H]1CCCCCC)OC(=O)[C@H](CC(C)C)NC=O` [Lipstatin, (2S,3S,5S,7Z,10Z)-5-[(S)-2-formamido-4-methyl-valeryloxy]-2-hexyl-3-hydroxy-7,10-hexadecadienoic acid lactone], the IC50 (pig pancreas lipase) was 142 nM, the LD50 [1] was greater than 4000 mg/kg and the “Excretion of Triolein in % of the amount administered” value (resorption of fats; controls 3.5 ± 0.3) was 56.8 ± 13 % of the amount administered. The “Excretion of Oleic acid in % of the amount administered” value (resorption of fats; controls 10.1 ± 0.6) was 13.8 ± 5.6 % of the amount administered.
